Molecules are shown by their SMILES.

Common to all, as to assay type: cell-based
In test [1] the target is T1, human β2-adrenergic receptor (Homo sapiens, UniProt P07550).
T1 construct: expressed in transfected cells; host or cells: CHO (Chinese hamster ovary) cells, pcDNA3
As to the kind of experiment: Test Case 3-B: human β2-adrenergic receptor agonist activity. Conditions: for Emax: read-out: β2 receptor I.A.; for β2 receptor I.A.: Test Case 3-B, maximum response of isoproterenol = 100%. As for the experimental part:
Measurement of Human β2-Adrenergic Receptor Agonist Activity
The human β2-adrenergic receptor agonist activity is measured by the same method as in Test Case 1-B using CHO (Chinese hamster ovary) cells transfected by a human β2 gene inserted in pcDNA3 (Invitrogen).

In test [2] the target is T2, human β3-adrenergic receptor (Homo sapiens, UniProt P13945).
T2 construct: A full-length human β3 gene is obtained from a human genomic library (made by Clontech) using this as the probe; expressed in transfected cells; host or cells: CHO (Chinese hamster ovary) cells, pcDNA3
As to the kind of experiment: Test Case 1-B: human β3-adrenergic receptor agonist activity (cAMP-Screen, 96-well). The note with it: for Emax: 0.5 h, read-out: β3 receptor I.A.; for EC50 / β3 receptor I.A.: Test Case 1-B; for EC50: CHO cells, cAMP; for β3 receptor I.A.: maximum response of isoproterenol = 100%. As for the experimental part: Measurement of Human β3-Adrenergic Receptor Agonist Activity
The human β3-adrenergic receptor agonist activity is measured using CHO (Chinese hamster ovary) cells transfected by a human β3 gene inserted in pcDNA3 (Invitrogen). […] A full-length human β3 gene is obtained from a human genomic library (made by Clontech) using this as the probe. These cells are cultured in Ham's F-12 medium containing 10% fetal calf serum and 400 μg/mL genectin (Invitrogen). These cells are sown in 96-well plates to make 2×10^4 cells/well. After culturing for approximately 20 hours, they are allowed to stand for 15 minutes in 80 μL of serum-free Ham's F-12 medium. After first dissolving the test compound by DMSO, it is serially diluted by Ham's F-12 containing 100 mmol/L HEPES and 1 mmol/L isobutylmethylxanthine, and 20 μL is added to the cells. After culturing for 30 minutes, the medium is removed, and 0.1 mL of the assay/lysis buffer contained in the cAMP-Screen kit (made by Applied Bioscience) is added and incubated for 30 minutes at 37° C. The cAMP in this cell lysate is assayed by the above cAMP-Screen kit.

The target in test [3] is T3, human β1-adrenergic receptor (Homo sapiens, UniProt P08588).
T3 construct: expressed in transfected cells; host or cells: CHO (Chinese hamster ovary) cells, pcDNA3
Put plainly: Test Case 2-B: human β1-adrenergic receptor agonist activity. Conditions: for Emax: read-out: β1 receptor I.A.; for β1 receptor I.A.: Test Case 2-B, maximum response of isoproterenol = 100%. How it is done: Measurement of Human β1-Adrenergic Receptor Agonist Activity
The human β1-adrenergic receptor agonist activity is measured by the same method as in Test Case 1-B using CHO (Chinese hamster ovary) cells transfected by a human β1 gene inserted in pcDNA3 (Invitrogen).

For test [4], the target named is T4, human α1A-adrenergic receptor (Homo sapiens, UniProt P35348).
T4 sequence (P35348 1-466): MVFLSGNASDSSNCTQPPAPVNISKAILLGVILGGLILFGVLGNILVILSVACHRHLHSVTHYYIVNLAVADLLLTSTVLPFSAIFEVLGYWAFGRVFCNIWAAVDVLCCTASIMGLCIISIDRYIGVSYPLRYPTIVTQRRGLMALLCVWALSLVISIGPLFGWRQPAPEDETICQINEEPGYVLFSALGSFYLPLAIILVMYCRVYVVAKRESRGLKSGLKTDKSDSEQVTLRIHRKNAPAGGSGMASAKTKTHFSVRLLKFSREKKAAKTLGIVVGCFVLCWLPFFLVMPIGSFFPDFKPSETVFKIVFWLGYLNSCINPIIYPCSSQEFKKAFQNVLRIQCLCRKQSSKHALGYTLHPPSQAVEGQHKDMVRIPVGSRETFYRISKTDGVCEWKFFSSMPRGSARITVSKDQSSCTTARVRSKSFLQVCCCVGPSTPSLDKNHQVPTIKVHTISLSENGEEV
As to the kind of experiment: Test Case 4-A: human α1A-adrenergic receptor agonist activity (HEK293, Ca flux, Fura-2). Also on record: expressed in transfected cells; host or cells: HEK293 cells, pcDNA3.1. Conditions: for Emax: HEK293, read-out: α1A receptor I.A.; for α1A receptor I.A.: maximum response of norepinephrine = 100%. How it is done:
Measurement of Human α1A-Adrenergic Receptor Agonist Activity
The human α1A-adrenergic receptor agonist activity is measured using HEK293 cells transfected by a human α1A gene inserted in pcDNA3.1 (Invitrogen). […] After loading for 30 minutes in a CO2 incubator, the excess Fura-2AM is removed by washing twice with assay buffer. After preparing the centrifuged cells to make 5×10^6 cells/mL by assay buffer, 80 μL/well is dispensed into 96-well UV plates (made by Corning) to make cell plates. Sample plates with the test compound diluted 10-fold by assay buffer from 10^−5 to 10^−12 M and cell plates are set in an FDSS4000 (made by Hamamatsu Photonics). After preincubating for 180 seconds, measurement of fluorescence intensity (excitation wavelength 340 nm, 380 nm, measurement wavelength 500 nm) is begun at 2-second intervals. After approximately 30 seconds of measurement, 20 μL of test sample from a sample plate is added to the cell plate, and measurement is continued for another 270 seconds. The Ca flux caused by the test compound is calculated taking the difference in the maximum value of the fluorescence intensity ratio at 340 nm and 380 nm after adding the test compound and the fluorescence intensity ratio before adding the test compound as the peak height.

T1 sequence (P07550 whole entry): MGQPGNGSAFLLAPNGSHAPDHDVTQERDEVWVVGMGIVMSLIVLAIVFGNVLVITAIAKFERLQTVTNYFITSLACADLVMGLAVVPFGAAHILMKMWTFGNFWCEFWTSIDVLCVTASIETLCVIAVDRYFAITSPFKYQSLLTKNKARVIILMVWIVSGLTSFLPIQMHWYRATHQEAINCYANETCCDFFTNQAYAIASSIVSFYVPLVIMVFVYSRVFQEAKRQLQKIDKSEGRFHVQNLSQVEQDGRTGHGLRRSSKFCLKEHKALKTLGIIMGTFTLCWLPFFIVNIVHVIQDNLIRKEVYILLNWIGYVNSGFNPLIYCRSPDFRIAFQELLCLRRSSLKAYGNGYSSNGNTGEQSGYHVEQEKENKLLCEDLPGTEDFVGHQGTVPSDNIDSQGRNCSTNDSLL
T2 sequence (P13945 whole entry): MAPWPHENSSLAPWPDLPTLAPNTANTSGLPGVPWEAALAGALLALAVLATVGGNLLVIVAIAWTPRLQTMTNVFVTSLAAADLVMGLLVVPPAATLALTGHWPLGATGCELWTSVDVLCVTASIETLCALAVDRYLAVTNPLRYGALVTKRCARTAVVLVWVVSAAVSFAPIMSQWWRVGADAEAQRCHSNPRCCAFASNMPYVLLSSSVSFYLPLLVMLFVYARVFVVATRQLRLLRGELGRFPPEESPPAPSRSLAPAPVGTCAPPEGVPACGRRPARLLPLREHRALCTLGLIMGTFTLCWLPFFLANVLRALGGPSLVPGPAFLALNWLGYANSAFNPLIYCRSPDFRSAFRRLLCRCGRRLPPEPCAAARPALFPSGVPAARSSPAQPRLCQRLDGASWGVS
T3 sequence (P08588 whole entry): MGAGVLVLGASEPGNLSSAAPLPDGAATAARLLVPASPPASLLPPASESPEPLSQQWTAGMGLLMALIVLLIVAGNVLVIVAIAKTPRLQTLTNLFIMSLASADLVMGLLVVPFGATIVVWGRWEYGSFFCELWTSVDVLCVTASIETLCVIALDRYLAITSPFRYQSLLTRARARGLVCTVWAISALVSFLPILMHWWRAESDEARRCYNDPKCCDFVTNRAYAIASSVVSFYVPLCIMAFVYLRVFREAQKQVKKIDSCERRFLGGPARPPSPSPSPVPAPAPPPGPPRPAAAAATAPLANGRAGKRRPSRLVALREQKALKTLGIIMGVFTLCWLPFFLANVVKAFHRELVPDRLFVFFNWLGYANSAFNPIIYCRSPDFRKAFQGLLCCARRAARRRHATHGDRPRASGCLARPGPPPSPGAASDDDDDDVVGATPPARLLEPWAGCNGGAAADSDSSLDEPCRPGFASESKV

For orientation: EC50 means the concentration that produces a half-maximal response. A low value points to a more potent agent. In the case of `COc1n[nH]c2cc(OCCNC[C@H](O)c3cccc(NS(=O)(=O)C4CC4)c3)ccc12` [ex17, (R)-N-( ? -(1-hydroxy-2-(2-(3-methoxyindazol-6-yloxy)ethylamino)ethyl)phenyl)cy ?], the Emax in test [1] amounted to 12%; in test [2], 70%; in test [3] it was 1%; in test [4], 13%. The same compound showed an EC50 in test [2] of 39 nM.

In the case of `COc1n[nH]c2cc(OCCNC[C@H](O)c3cccc(NS(=O)(=O)c4cccc(Cl)c4)c3)ccc12` [ex42, (R)-3-chloro-N-(3-(1-hydroxy-2-(2-(3-methoxyindazol-6-yloxy)ethylamino)ethyl)phenyl) benzenesulfonamide], the “β2 receptor I.A.” value in test [1] came out at 0%. For the same compound, in test [2], a half-maximal response (EC50) required 3.8 nM and the “β3 receptor I.A.” value is recorded as 83%. Further, the “β1 receptor I.A.” value in test [3] is recorded as 4%. For the same compound, the “α1A receptor I.A.” value in test [4] (Test Case 4-A, Table 4) is on record as 0%.

Regarding `COc1cccc(S(=O)(=O)Nc2cccc([C@@H](O)CNCCOc3ccc4c(OC)n[nH]c4c3)c2)c1` [ex43, (R)-N-(3-(1-hydroxy-2-(2-(3-methoxyindazol-6-yloxy)ethylamino)ethyl)phenyl)-3-methoxybenzene-sulfonamide], the “β2 receptor I.A.” value in test [1] was −5%. For the same compound, in test [2], the EC50 came to 15 nM and the “β3 receptor I.A.” value amounted to 65%. Besides, the “β1 receptor I.A.” value in test [3] is −2%. In test [4] (Test Case 4-A, Table 4), the “α1A receptor I.A.” value is recorded as 0%.

For `COc1n[nH]c2cc(OCCNC[C@H](O)c3cccc(NS(=O)(=O)C4CC4)c3)ccc12` [ex47, (R)-N-(3-(1-hydroxy-2-(2-(3-methoxyindazol-6-yloxy)-ethylamino)ethyl)phenyl)cyclo-propanesulfonamide], the “β2 receptor I.A.” value in test [1] was 16%. The EC50 is 41 nM in test [2] and 1220 nM in test [4] (Test Case 4-A, HEK293 cells, Ca flux, Table 4). Further, the “β3 receptor I.A.” value in test [2] is given as 72%. In addition, the “β1 receptor I.A.” value in test [3] stood at 3%. Moreover, in test [4] (Test Case 4-A, Table 4), the “α1A receptor I.A.” value is 28%.

Consider `Cc1cccc(S(=O)(=O)Nc2cccc([C@@H](O)CNCCOc3ccc4c(C)n[nH]c4c3)c2)c1` [ex49, (R)-N-(3-(1-hydroxy-2-(2-(3-methylindazol-6-yloxy)ethylamino)ethyl)phenyl)-3-methyl], for which the Emax in test [1] is -3%; in test [2] it was 96%; in test [3], 10%; in test [4], 0%. For the same compound, it took 2.5 nM to reach a half-maximal effect in test [2] (EC50).

Consider `Cc1n[nH]c2cc(OCCNC[C@H](O)c3cccc(NS(=O)(=O)c4ccccc4N)c3)ccc12` [ex53, (R)-2-amino-N-(3-(1-hydroxy-2-(2-(3-methylindazol-6-yloxy)ethylamino)ethyl)phenyl) benzenesulfonamide], for which the Emax in test [1] amounted to 2%; in test [2], 98%; in test [3], 14%; in test [4], 0%. The half-maximal effective concentration (EC50) in test [2] was 4.1 nM.

As to `Nc1cccc(S(=O)(=O)Nc2cccc([C@@H](O)CNCCOc3ccc4c(OC(F)F)n[nH]c4c3)c2)c1` [ex104], the Emax in test [1] is 4%; in test [2], 116%; in test [3], 8%; in test [4], 0%. This compound yielded an EC50 in test [2] of 0.42 nM.

In the case of `CCc1n[nH]c2cc(OCCNC[C@H](O)c3cccc(NS(=O)(=O)c4cccc(N)c4)c3)ccc12` [ex118, (R)-3-amino-N-(3-(2-(2-(3-ethylindazol-6-yloxy)-ethylamino)-1-hydroxyethyl)-phenyl) benzenesulfonamide], the Emax was -1% in test [1], 77% in test [2], 13% in test [3] and 0% in test [4]. Besides, in test [2], the EC50 came to 0.25 nM.

Take `CCc1n[nH]c2cc(OCCNC[C@H](O)c3cccc(NS(=O)(=O)c4cccc(C)c4)c3)ccc12` [ex126, (R)-N-(3-(2-(2-(3-ethylindazol-6-yloxy)ethylamino)-1-hydroxyethyl)phenyl)-3-methylbenzene-sulfonamide]: the Emax came out at 1% in test [1], 85% in test [2], 8% in test [3] and 0% in test [4]. This compound had an EC50 in test [2] of 14 nM.

As for `O=S(=O)(Nc1cccc([C@@H](O)CNCCOc2ccc3c(Cl)n[nH]c3c2)c1)C1CC1` [ex152], the Emax turned out to be 15% in test [1], 104% in test [2], 3% in test [3] and 8% in test [4]. This compound returned an EC50 in test [2] of 22 nM.

Turning to `Nc1cccc(S(=O)(=O)Nc2cccc([C@@H](O)CNCCOc3ccc4c(Cl)n[nH]c4c3)c2)c1` [ex153, (R)- ? -amino-N-(3-(2-(2-(3-chloroindazol-6-yloxy)-ethylamino)-1-hydroxyethyl)-phenyl) benzenesulfonamide], the Emax in test [1] came out at 13%; in test [2], 95%; in test [3], 12%; in test [4], 0%. In test [2], this compound registered an EC50 of 0.22 nM.

In the case of `O=S(=O)(Nc1cccc([C@@H](O)CNCCOc2ccc3c(C(F)(F)F)n[nH]c3c2)c1)C1CC1` [ex181, (R)-N-(3-(1-hydroxy-2-(2-(3-(trifluoromethyl)indazol-6-yloxy)ethylamino)ethyl)phenyl) cyclopropane-sulfonamide], the Emax was 8% in test [1], 80% in test [2], 1% in test [3] and 4% in test [4]. The same compound yielded an EC50 in test [2] of 16 nM.

As for `CC(C)c1n[nH]c2cc(OCCNC[C@H](O)c3cccc(NS(=O)(=O)c4cccc(N)c4)c3)ccc12` [ex231, (R)-3-amino-N-(3-(1-hydroxy- ? -(2-( ? iso-propylindazol- ? - yloxy)ethylamino)ethyl)phenyl) benzene ? fonamide], the Emax in test [1] was found to be 3%; in test [2], 124%; in test [3], 18%; in test [4] it was 0%. In addition, in test [2], the response was half-maximal at 0.2 nM (EC50).

Take `Cc1n[nH]c2cc(OCCNC[C@H](O)c3cccc(NS(=O)(=O)c4cccc(O)c4)c3)ccc12` [ex236, (R)-3-hydroxy-N-(3-(1-hydroxy-2-(2-(3-methylindazol-6-yloxy)ethylamino)ethyl)phenyl)benzenesulfonamide]: the Emax in test [1] is 5%; in test [2], 58%; in test [3] it was 11%; in test [4], 0%. In addition, in test [2], it took 1 nM to reach a half-maximal effect (EC50).

In the case of `CNc1cccc(S(=O)(=O)Nc2cccc([C@@H](O)CNCCOc3ccc4c(C)n[nH]c4c3)c2)c1` [ex239, (R)—N-(3-(1-hydroxy-2-(2-(3-methylindazol-6-yloxy)ethylamino)ethyl)phenyl)-3-(methylamino)benzenesulfonamide], the Emax was 2% in test [1], 108% in test [2], 15% in test [3] and 0% in test [4]. The same compound came in with an EC50 in test [2] of 16 nM.

For the origin of these results see US20120225909A1, “INDAZOLE ANALOG” (priority 2009, published 2012).
